Values joined by “and” are separate entries in the source; they are usually repeats but may differ in a detail not shown here. Equal entries are not always repeated. Each block holds one molecule with its values, some of them ahead of it.
Tested on: 855422-203-R-J1-PDC complex spheroid growth
Test: Anticancer human tumor 855422-203-R-J1-PDC patient-derived bladder carcinoma cell line growth inhibition [AhR]
Conditions: for viability, T/C: stronger effect = lower value
In short: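 Spheroids combined tumor cells with HUVEC endothelial cells and human MSCs as stroma. AhR antagonists were paired with standard or investigational drugs, each dosed in half-log steps down from near clinical Cmax, or from 10 microM where Cmax was unknown.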

[1] = curve of first compound, second compound 0.1 µM
[2] = curve of first compound, second compound 0.316 µM
[3] = curve of first compound, second compound 1 µM
[4] = curve of first compound, second compound 3.16 µM
[5] = curve of first compound, second compound 10 µM
[6] = second compound 0.1 µM, first compound 0.0316 µM
[7] = second compound 0.1 µM, first compound 0.1 µM
[8] = second compound 0.1 µM, first compound 0.316 µM
[9] = second compound 0.1 µM, first compound 1 µM
[10] = second compound 0.1 µM, first compound 3.16 µM
[11] = second compound 0.1 µM, first compound 10 µM
[12] = second compound 0.316 µM, first compound 0.0316 µM
[13] = second compound 0.316 µM, first compound 0.1 µM
[14] = second compound 0.316 µM, first compound 0.316 µM
[15] = second compound 0.316 µM, first compound 1 µM
[16] = second compound 0.316 µM, first compound 3.16 µM
[17] = second compound 0.316 µM, first compound 10 µM
[18] = second compound 1 µM, first compound 0.0316 µM
[19] = second compound 1 µM, first compound 0.1 µM
[20] = second compound 1 µM, first compound 0.316 µM
[21] = second compound 1 µM, first compound 1 µM
[22] = second compound 1 µM, first compound 3.16 µM
[23] = second compound 1 µM, first compound 10 µM
[24] = second compound 3.16 µM, first compound 0.0316 µM
[25] = second compound 3.16 µM, first compound 0.1 µM
[26] = second compound 3.16 µM, first compound 0.316 µM
[27] = second compound 3.16 µM, first compound 1 µM
[28] = second compound 3.16 µM, first compound 3.16 µM
[29] = second compound 3.16 µM, first compound 10 µM
[30] = second compound 10 µM, first compound 0.0316 µM
[31] = second compound 10 µM, first compound 0.1 µM
[32] = second compound 10 µM, first compound 0.316 µM
[33] = second compound 10 µM, first compound 1 µM
[34] = second compound 10 µM, first compound 3.16 µM
[35] = second compound 10 µM, first compound 10 µM
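Further: spheroids exposed to agents for seven days before readout.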
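Wherever viability, T/C is given: percent of DMSO vehicle control luminescence viability.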

SMILES: Nc1ccn(C2OC(CO)C(O)C2(F)F)c(=O)n1 (centres undefined) + CC(CO)NC(=O)c1cc(-c2ccc(Cl)cc2)nn(-c2cnn(C)c2)c1=O
IC50 [1]: 232 nM
IC50 [2]: 166 nM
IC50 [3]: 175 nM
IC50 [4]: 99.5 nM
IC50 [5]: 132 nM
viability, T/C [6]: 99.4%
viability, T/C [7]: 79.7%
viability, T/C [8]: 38.5%
viability, T/C [9]: 18.7%
viability, T/C [10]: 14.4%
viability, T/C [11]: 10.5%
viability, T/C [12]: 88.4%
viability, T/C [13]: 71.2%
viability, T/C [14]: 22.9%
viability, T/C [15]: 15.9%
viability, T/C [16]: 13.2%
viability, T/C [17]: 8.62%
viability, T/C [18]: 97.8%
viability, T/C [19]: 74.3%
viability, T/C [20]: 23.9%
viability, T/C [21]: 17.8%
viability, T/C [22]: 14.4%
viability, T/C [23]: 8.17%
viability, T/C [24]: 89.9%
viability, T/C [25]: 50.2%
viability, T/C [26]: 22.2%
viability, T/C [27]: 16.1%
viability, T/C [28]: 11.3%
viability, T/C [29]: 9.74%
viability, T/C [30]: 81.3%
viability, T/C [31]: 59.6%
viability, T/C [32]: 19.9%
viability, T/C [33]: 14.6%
viability, T/C [34]: 14.5%
viability, T/C [35]: 8.36%

SMILES: O=C(C=Cc1cccc(S(=O)(=O)Nc2ccccc2)c1)NO
viability, T/C (compound 0.0316 µM): 84% and 110% and 92.6%
viability, T/C (compound 0.1 µM): 84.6% and 109% and 91.1%
viability, T/C (compound 0.316 µM): 88.4% and 108% and 90%
viability, T/C (compound 1 µM): 69% and 106% and 70.5%
viability, T/C (compound 3.16 µM): 29.5% and 61% and 34.7%
viability, T/C (compound 10 µM): 0.96% and 4.09% and 0.82%
IC50 (curve of compound): 1770 nM and 3950 nM and 1950 nM

SMILES: COc1ccc([C@@H](O)c2cc(-c3ncnc4cc(N5CCOCC5)ccc34)c(F)cc2Cl)nn1 + Cc1cncc(-c2nc(NCCc3c[nH]c4ccccc34)c3ncn(C(C)C)c3n2)c1
IC50 [1]: > 10000 nM
IC50 [2]: 9440 nM
IC50 [3]: 6090 nM
IC50 [4]: 2410 nM
IC50 [5]: < 31.6 nM
viability, T/C [6]: 101%
viability, T/C [7]: 90.6%
viability, T/C [8]: 93.7%
viability, T/C [9]: 83.8%
viability, T/C [10]: 76.7%
viability, T/C [11]: 50.9%
viability, T/C [12]: 97.1%
viability, T/C [13]: 88.6%
viability, T/C [14]: 77.2%
viability, T/C [15]: 86.8%
viability, T/C [16]: 74.5%
viability, T/C [17]: 47.8%
viability, T/C [18]: 90.5%
viability, T/C [19]: 94.6%
viability, T/C [20]: 79.9%
viability, T/C [21]: 74.5%
viability, T/C [22]: 69.1%
viability, T/C [23]: 37.6%
viability, T/C [24]: 79.5%
viability, T/C [25]: 85.6%
viability, T/C [26]: 67.2%
viability, T/C [27]: 54.7%
viability, T/C [28]: 52.6%
viability, T/C [29]: 27.9%
viability, T/C [30]: 6.06%
viability, T/C [31]: 3.37%
viability, T/C [32]: 1.79%
viability, T/C [33]: 0.4%
viability, T/C [34]: 6.5%
viability, T/C [35]: 9.38%

SMILES: CCN(c1cc(-c2ccc(CN3CCOCC3)cc2)cc(C(=O)NCc2c(C)cc(C)[nH]c2=O)c1C)C1CCOCC1
viability, T/C (compound 0.00949 µM): 105% (2×) and 109%
viability, T/C (compound 0.03 µM): 100% and 102% and 108%
viability, T/C (compound 0.0949 µM): 100% and 105% and 99.7%
viability, T/C (compound 0.3 µM): 94.2% and 98.2% and 97.3%
viability, T/C (compound 0.949 µM): 96.8% and 91.9% and 88.2%
viability, T/C (compound 3 µM): 78.1% and 92.2% and 80.9%
IC50 (curve of compound): > 3000 nM

SMILES: CC(C)CC(NC(=O)C(Cc1ccccc1)NC(=O)c1cnccn1)B(O)O (centres undefined) + Cc1cncc(-c2nc(NCCc3c[nH]c4ccccc34)c3ncn(C(C)C)c3n2)c1
IC50 [1]: 2.14 nM
IC50 [2]: 2.02 nM
IC50 [3]: 1.68 nM
IC50 [4]: 1.29 nM
IC50 [5]: < 0.949 nM
viability, T/C (second compound 0.1 µM, first compound 0.000949 µM): 93%
viability, T/C (second compound 0.1 µM, first compound 0.003 µM): 32.3%
viability, T/C (second compound 0.1 µM, first compound 0.00949 µM): 1.54%
viability, T/C (second compound 0.1 µM, first compound 0.03 µM): 0.03%
viability, T/C (second compound 0.1 µM, first compound 0.0949 µM): 0.02%
viability, T/C (second compound 0.1 µM, first compound 0.3 µM): 0.1%
viability, T/C (second compound 0.316 µM, first compound 0.000949 µM): 103%
viability, T/C (second compound 0.316 µM, first compound 0.003 µM): 22.5%
viability, T/C (second compound 0.316 µM, first compound 0.00949 µM): 2.79%
viability, T/C (second compound 0.316 µM, first compound 0.03 µM): 0.01%
viability, T/C (second compound 0.316 µM, first compound 0.0949 µM): 0.01%
viability, T/C (second compound 0.316 µM, first compound 0.3 µM): 0.09%
viability, T/C (second compound 1 µM, first compound 0.000949 µM): 90.6%
viability, T/C (second compound 1 µM, first compound 0.003 µM): 9.23%
viability, T/C (second compound 1 µM, first compound 0.00949 µM): 1.41%
viability, T/C (second compound 1 µM, first compound 0.03 µM): 0.02%
viability, T/C (second compound 1 µM, first compound 0.0949 µM): 0.03%
viability, T/C (second compound 1 µM, first compound 0.3 µM): 1.34%
viability, T/C (second compound 3.16 µM, first compound 0.000949 µM): 66.5%
viability, T/C (second compound 3.16 µM, first compound 0.003 µM): 4.56%
viability, T/C (second compound 3.16 µM, first compound 0.00949 µM): 0.97%
viability, T/C (second compound 3.16 µM, first compound 0.03 µM): 2.11%
viability, T/C (second compound 3.16 µM, first compound 0.0949 µM): 0.02%
viability, T/C (second compound 3.16 µM, first compound 0.3 µM): 0.68%
viability, T/C (second compound 10 µM, first compound 0.000949 µM): 4.11%
viability, T/C (second compound 10 µM, first compound 0.003 µM): 0.69%
viability, T/C (second compound 10 µM, first compound 0.00949 µM): 0.08%
viability, T/C (second compound 10 µM, first compound 0.03 µM): 1.49%
viability, T/C (second compound 10 µM, first compound 0.0949 µM): 0.1%
viability, T/C (second compound 10 µM, first compound 0.3 µM): 0.73%

The next lines start with results.

IC50 (compound alone, run of 05/31/2022): > 10000 nM
SMILES: CC(CO)NC(=O)c1cc(-c2ccc(Cl)cc2)nn(-c2cnn(C)c2)c1=O (centres undefined)
viability, T/C (compound 0.1 µM): 92.2% [middle of 20 runs]
viability, T/C (compound 1 µM): 94.9% [middle of 21 runs]
viability, T/C (compound 3.16 µM): 96.8% [middle of 19 runs]
viability, T/C (compound 10 µM): 91.4% [middle of 19 runs]

IC50 [1]: > 10000 nM
IC50 [2]: > 10000 nM
IC50 [3]: > 10000 nM
IC50 [4]: > 10000 nM
IC50 [5]: > 10000 nM
SMILES: COc1cc(Nc2ncc3c(n2)-c2ccc(Cl)cc2C(c2c(F)cccc2OC)=NC3)ccc1C(=O)O + Cc1ccccc1N=Nc1ccc(NC(=O)c2ccnn2C)c(C)c1
viability, T/C [6]: 109%
viability, T/C [7]: 108%
viability, T/C [8]: 88.9%
viability, T/C [9]: 85.1%
viability, T/C [10]: 77.7%
viability, T/C [11]: 73%
viability, T/C [12]: 105%
viability, T/C [13]: 109%
viability, T/C [14]: 93.4%
viability, T/C [15]: 92.8%
viability, T/C [16]: 85.9%
viability, T/C [17]: 68.7%
viability, T/C [18]: 114%
viability, T/C [19]: 113%
viability, T/C [20]: 98.7%
viability, T/C [21]: 84.3%
viability, T/C [22]: 78.1%
viability, T/C [23]: 76.8%
viability, T/C [24]: 105%
viability, T/C [25]: 106%
viability, T/C [26]: 87.3%
viability, T/C [27]: 79.4%
viability, T/C [28]: 79.5%
viability, T/C [29]: 68.3%
viability, T/C [30]: 87.8%
viability, T/C [31]: 88.8%
viability, T/C [32]: 81.7%
viability, T/C [33]: 89.7%
viability, T/C [34]: 79.2%
viability, T/C [35]: 71.2%
